According to patent US12344599B2, “Prodigiosin analogs and methods of use” (Institute For Cancer Research, priority 2016, dated 2025):

How the values were obtained:
[1] = test system: U251; test: CellTiterGlo cell viability assay, U251; format: cell-based; settings: Homo sapiens, U-251; U251, glioblastoma multiforme, p53 R273H, 72 hours
Experimental: (§1) • 1) Cell lines: HT29, SW480, DLD-1, HCT116, and p53-null HCT116 cells, H1975, MDA-MD-231, U251, FaDu, CAL-27, PANC-1, Aspc-1, and MRC5 were obtained from the ATCC and cultured as recommended. Cells were regularly authenticated by bioluminescence, growth, and morphologic observation. The cells were routinely examined for Mycoplasma and all cell lines underwent STR authentication. • 2) Western blotting: After treatment, protein lysates were collected for Western blot analysis. 15 μg of protein was used for SDS-PAGE. After primary and secondary antibody incubations, the signal was detected by chemiluminescent detection kit, imaged by Syngene (Imgen Technologies). […] The cell viability was assessed by CellTiterGlo bioluminescent cell proliferation assay (Promega), following the manufacturer's protocol. Bioluminescence imaging was measured using the IVIS imager. Percentage of cell viability (mean±SEM) at each dose was calculated against the respective DMSO control. The IC50 values were determined from the sigmoidal dose-response curves using GraphPad Prims4. • 4) Caspase activity assay: Cells were seeded in 96-well plate (1×10^4 cells/well). […] The caspase 3/7 activity was assessed by Caspase-Glo® 3/7 Assay kit (Promega), following the manufacturer's protocol. Bioluminescence imaging was measured using the IVIS imager. […]

[2] = test system: ATF4 and CHOP in HCT116 p53−/− cells; test: Western blot of ATF4 and CHOP, HCT116 p53−/−; format: cell-based, human
Experimental: as §1

[3] = test system: HCT116 p53−/− cells; test: qRT-PCR of p53 target gene mRNA, HCT116 p53−/−; format: cell-based, human; settings: 1 μM
Experimental: as §1

[4] = test system: ATF4 and CHOP in DLD1 cells; test: Western blot of ATF4 and CHOP, DLD1; format: cell-based, human
Experimental: as §1

[5] = test system: HCT116 p53−/−; test: CellTiterGlo cell viability assay, HCT116 p53−/−; format: cell-based; settings: Homo sapiens, HCT-116, colorectal cancer, p53 null, 72 hours
Experimental: as §1

[6] = test system: HT29 cells; test: Flow cytometry sub-G1 (PI staining) analysis; format: cell-based, human; settings: for sub-G1 populations: HT29, co-treatment with PG3-Oc and TRAIL; for sub-G1 population: 1 μM PG3-Oc for 48 hours
Experimental: • 1) Cell lines: HT29, SW480, DLD-1, HCT116, and p53-null HCT116 cells, H1975, MDA-MD-231, U251, FaDu, CAL-27, PANC-1, Aspc-1, and MRC5 were obtained from the ATCC and cultured as recommended. Cells were regularly authenticated by bioluminescence, growth, and morphologic observation. The cells were routinely examined for Mycoplasma and all cell lines underwent STR authentication. • 2) Western blotting: After treatment, protein lysates were collected for Western blot analysis. 15 μg of protein was used for SDS-PAGE. After primary and secondary antibody incubations, the signal was detected by chemiluminescent detection kit, imaged by Syngene (Imgen Technologies). Antibodies for Puma, FLIPL/S and p53 (Santa Cruz Biotechnology), cleaved caspase 8, caspase 9, caspase 3, cleavage PARP, eIF2α, p-eIF2α(Ser51), CHOP, ATF4, DR5, FOXO3a, p-FOXO3a(Ser253), NF-κB p65, p-NF-κB p65(Ser536), c-Jun, p-c-Jun(Ser63), JNK, p-JNK(Thr183/Tyr185) (Cell Signaling Technology), Noxa, p21 (Calbiochem), p73 (Bethyl laboratories Inc), Ran (BD Biosciences), […] (Sigma). • 3) Cell viability assay: Cells were seeded in 96-well plate (6×10^3 cells/well). Cells were treated with different concentrations of compounds or dimethyl sulfoxide (DMSO) control for 72 hours. The cell viability was assessed by CellTiterGlo bioluminescent cell proliferation assay (Promega), following the manufacturer's protocol. Bioluminescence imaging was measured using the IVIS imager. Percentage of cell viability (mean±SEM) at each dose was calculated against the respective DMSO control. The IC50 values were determined from the sigmoidal dose-response curves using GraphPad Prims4. • 4) Caspase activity assay: Cells were seeded in 96-well plate (1×10^4 cells/well). Cells were treated with different concentrations of compounds or DMSO control for 24 hours. The caspase 3/7 activity was assessed by Caspase-Glo® 3/7 Assay kit (Promega), following the manufacturer's protocol. Bioluminescence imaging was measured using the IVIS imager. Caspase activity was normalized to cell numbers and compared to those of DMSO treatment as control in each cell line. Data is reported as mean RLU+SEM (n=3). • 5) Colony formation assays: Five hundred cells were seeded per well on 6-well plates and treated with different concentrations of compounds for 24 hours, then, cells were cultured with drug-free complete medium for 2 weeks with fresh medium changed every 7 days. Cells were fixed with 10% formalin and stained with 0.05% crystal violet at the end of 2 weeks period of cell culture. • 6) Flow cytometry assay: • a) Cell Cycle Analysis: Propidium iodide (PI) staining and flow cytometry were used to determine the degree of cellular apoptosis. Cells were seeded at 3×10^5 cells/well in six-well plates. Cells were treated with PG3-Oc for 48 hours. Cells were harvested, fixed by 70% ethanol, and stained by propidium iodide, then flow cytometry was performed as previously described (Smithen et al., Org. Biomol. Chem., 2013, 11, 62-68). The percentage of hypodiploid cells (sub-G1) was used to quantify dead cells in apoptosis assays. • b) Early apoptosis detection: Cells were seeded at 3×10^5 cells/well in six-well plates. Cells were treated with PG3-Oc for 48 hours. […]

[7] = test system: SW480 cells; test: qRT-PCR of p53 target gene mRNA, SW480; format: cell-based, human; settings: SW480, 1 μM
Experimental: Total RNA was isolated from PG3-Oc-treated cells using the Quick-RNA mini prep kit (Zymo Research, Irvine, CA) according to the manufacturer's protocol. 500 ng of total RNA was used to generate cDNA using SuperScript III first-strand synthesis system with random primers (Invitrogen), following the manufacturer's protocol. Real-time PCR was performed using POWER SYBR GREEN mast mix (Applied Biosystem) for DR5, p21, PUMA, GAPDH, and TaqMan primer-probes for detection of c-Myc mRNA levels on 7900HT Sequence Detection System (Applied Biosystem). Primers having SEQ ID NOs:1-6 (see above) were used. Taq Prob IDs for c-Myc (HS 00153408) and GAPDH (HA 99999905). ΔΔCt method was used to analyze and report fold changes of the indicated genes.

CCCCCCCCOC(=O)CCc1c(C)[nH]c(/C=C2\N=C(c3ccc[nH]3)C=C2OC)c1C [PG3-Oc, Octyl (Z)-3-(5-((4′-methoxy-1H,5′H-[2,2′-bipyrrol]-5′-ylidene)methyl)-2,4-dimethyl-1H-pyrrol-3-yl)propanoate]
IC50 [1]: 100 nM
concentration at which induction of ATF4 and CHOP occurred [2]: 1.25 µM
change of DR5 mRNA [3]: no significant change
induction of p21 mRNA ([3]; 8 and 19 hours post-treatment): Over 3 fold
concentration at which induction of ATF4 and CHOP occurred [4]: 5 µM
IC50 [5]: 41.1 nM
sub-G1 populations ([6]; siRNA knockdown of DR5): 29.5%
sub-G1 populations ([6]; without DR5 knockdown): 72.9%
sub-G1 population ([6]; HT29, knockdown of PUMA by siRNA): 11.1%
sub-G1 population ([6]; HT29, siControl): 25.8%
induction of p21 mRNA ([7]; 8 and 19 hours post-treatment): no significant change
DR5 mRNA upregulation ([7]; 19 hours post-treatment): about 2 fold
